Measurements published in patent US20250339436A1, “CRYSTALLINE FORMS OF MRTX1133” (MIRATI THERAPEUTICS, INC., priority 2024, published 2025).
“Also recorded” adds a separate entry of the source. Marks after values point to notes of the source that are not given here.

Assays:
Assay type in all cases: physicochemical
[1] = Thermogravimetric analysis (TGA)
Method: Thermogravimetric Analysis (TGA)
Instrument: Discovery 5500
Parameters: Nitrogen Flow balance 10 mL/min; sample 25 mL/min; start temperature: ambient condition (below 35° C.); final temperature: 300° C.; heating rate: 10° C./min; sample mass ˜2-10 mg. […]

[2] = Dynamic vapor sorption (DVS); conditions: 25° C./95% RH
Method: Dynamic Vapor Sorption (DVS)
Instrument: Intrinsic, Advantage or Adventure;
Total gas flow: 200 sccm; oven temperature: 25° C., solvent: water; method: • Cycle: 40-0-95-0-40% RH • Stage Step: 10% • Equilibrium: 0.002 dm/dt (%/min) Minimum dm/dt stability duration: 60 min • Maximum dm/dt stage time: 360 min

[3] = Bulk stability studies of MRTX1133 Forms II, VI, VIII and IX (solid state, 1-2 weeks); conditions: for Initial Purity by UPLC: before storage
Method: Stability studies of all four forms were conducted according to well-known methods. The results are summarized below in Tables 4-11.

[4] = Accelerated stability study of MRTX1133 amorphous form vs crystalline Forms VIII and IX; conditions: for stability under the conditions tested (conclusion): 25° C./60% RH and 40° C./75% RH; for trend of impurity values and assay results: all tested storage conditions
Method: Chemical stability and water content studies were conducted on amorphous MRTX1133 and MRTX1133 Forms VIII and IX according to well-known methods summarized below.
The stability studies of the amorphous form were done as follows.
The required amount was placed in a clear Class A glass bottle, 24 mL, with closed-top cap, sealed in opaque resealable Zipper bag. Per each storage condition there was one bottle, and the sampling was performed from the same bottle. Each bottle was labeled with protocol number, compound ID, lot number and storage condition.
The experimental conditions for stability testing of Forms VIII and IX were similar. However, the samples were placed in double LDPE bags filled with nitrogen protection, then placed into a heat-sealed foil bag, and into an HDPE container containing desiccant packs.

[5] = 25° C./60% RH, open container, 1 week
[6] = 25° C./60% RH, open container, 2 weeks
[7] = 25° C./92.5% RH, open container, 1 week
[8] = 25° C./92.5% RH, open container, 2 weeks
[9] = 40° C./75% RH, open container, 1 week
[10] = 40° C./75% RH, open container, 2 weeks
[11] = 60° C., tight container, 1 week
[12] = 60° C., tight container, 2 weeks
[13] = 40° C./75% RH, 2M, by HPLC, listed as amorphous
[14] = 40° C./75% RH, 3M, by HPLC, listed as amorphous

SMILES: C#Cc1c(F)ccc2cc(O)cc(-c3ncc4c(N5C[C@H]6CC[C@@H](C5)N6)nc(OC[C@@]56CCCN5C[C@H](F)C6)nc4c3F)c12 [Form VIII, 4-(4-((1R,5S)-3,8-diazabicyclo[3.2.1]octan-3-yl)-8-fluoro-2-(((2R,7aS)-2-fluorohexahydro-1H-pyrrolizin-7a-yl)methoxy)pyrido[4,3-d]pyrimidin-7-yl)-5-ethynyl-6-fluoronaphthalen-2-ol]
- onset of degradation as estimated by TGA [1]: about 180 °C
- weight loss observed by TGA ([1]; before 180° C. (onset of degradation)): about 0.7%
- weight loss observed by TGA ([1]; before 180° C. (onset of degradation), listed as MRTX1133 Form VIII): 0.7% weight loss observed
- water uptake by DVS [2]: about 1.3%
- water uptake by DVS ([2]; listed as MRTX1133 Form VIII): 1.3% water uptake at
- Bulk (UPLC) purity [3, 5]: 98.0%
- Bulk (UPLC) purity [3, 6]: 98.0%
- Bulk (XRPD) form [3, 6]: No form change
- Bulk color [3, 6]: no change of color
- Bulk (UPLC) purity [3, 7]: 98.1%
- Bulk (UPLC) purity [3, 8]: 98.0%
- Bulk (XRPD) form [3, 8]: No form change
- Bulk color [3, 8]: no change of color
- Bulk (UPLC) purity [3, 9]: 98.0%
- Bulk (XRPD) form [3, 9]: No form change
- Bulk (UPLC) purity [3, 10]: 98.1%
- Bulk (XRPD) form [3, 10]: No form change
- Bulk color [3, 10]: no change of color
- Bulk (UPLC) purity [3, 11]: 98.1%
- Bulk (UPLC) purity [3, 12]: 98.1%
- Bulk (XRPD) form [3, 12]: No form change
- Bulk color [3, 12]: no change of color
- Initial Purity by UPLC [3]: 98.0%
- stability under the conditions tested (conclusion) [4]: much more stable; also recorded: stable
- Moisture ([4]; 25° C./60% RH, 1M): 0.64 % w/w
- Assay ([4]; 25° C./60% RH, 1M, by HPLC): 96.8 w/w %
- Total Impurities ≥ 0.05% ([4]; 25° C./60% RH, 1M, by HPLC): 2.1 Area %
- Moisture ([4]; 25° C./60% RH, 3M): 0.49 % w/w
- Assay ([4]; 25° C./60% RH, 3M, by HPLC): 97.3 w/w %
- Total Impurities ≥ 0.05% ([4]; 25° C./60% RH, 3M, by HPLC): 2.1 Area %
- Moisture ([4]; 25° C./60% RH, 6M): 0.53 % w/w
- Assay ([4]; 25° C./60% RH, 6M, by HPLC): 96.4 w/w %
- Total Impurities ≥ 0.05% ([4]; 25° C./60% RH, 6M, by HPLC): 1.9 Area %
- moisture content trend ([4]; 40° C./75% RH): relatively stable
- Moisture ([4]; 40° C./75% RH, 1M): 0.62 % w/w
- Assay ([4]; 40° C./75% RH, 1M, by HPLC): 96.6 w/w %
- Total Impurities ≥ 0.05% ([4]; 40° C./75% RH, 1M, by HPLC): 2.2 Area %
- Moisture ([4]; 40° C./75% RH, 3M): 0.54 % w/w
- Assay ([4]; 40° C./75% RH, 3M, by HPLC): 97.4 w/w %
- Total Impurities ≥ 0.05% ([4]; 40° C./75% RH, 3M, by HPLC): 2.3 Area %
- Moisture ([4]; 40° C./75% RH, 6M): 0.78 % w/w
- Assay ([4]; 40° C./75% RH, 6M, by HPLC): 96.1 w/w %
- Total Impurities ≥ 0.05% ([4]; 40° C./75% RH, 6M, by HPLC): 2.2 Area %
- Moisture ([4]; T(0)): 0.55 % w/w
- Assay ([4]; T(0), by HPLC): 96.9 w/w %
- Total Impurities ≥ 0.05% ([4]; T(0), by HPLC): 2.5 Area %
- trend of impurity values and assay results [4]: no increases in impurity values and no decreases in assay results

SMILES: C#Cc1c(F)ccc2cc(O)cc(-c3ncc4c(N5CC6CCC(C5)N6)nc(OC[C@@]56CCCN5C[C@H](F)C6)nc4c3F)c12 [Amorphous]
- stability under the conditions tested (conclusion) [4]: not stable
- Moisture ([4]; 25° C./60% RH, 1M): 3.4 % w/w
- Assay ([4]; 25° C./60% RH, 1M, by HPLC): 89.5 w/w %
- Total Impurities ≥ 0.05% ([4]; 25° C./60% RH, 1M, by HPLC): 4.35 Area %
- Moisture ([4]; 25° C./60% RH, 2M): 4.2 % w/w
- Assay ([4]; 25° C./60% RH, 2M, by HPLC): 87.7 w/w %
- Total Impurities ≥ 0.05% ([4]; 25° C./60% RH, 2M, by HPLC): 4.74 Area %
- Moisture ([4]; 25° C./60% RH, 3M): 4.6 % w/w
- Assay ([4]; 25° C./60% RH, 3M, by HPLC): 86.1 w/w %
- Total Impurities ≥ 0.05% ([4]; 25° C./60% RH, 3M, by HPLC): 6.13 Area %
- Moisture ([4]; 40° C./75% RH, 1M): 2.7 % w/w
- Assay ([4]; 40° C./75% RH, 1M, by HPLC): 82.8 w/w %
- Total Impurities ≥ 0.05% ([4]; 40° C./75% RH, 1M, by HPLC): 8.03 Area %
- Moisture ([4]; 40° C./75% RH, 2M): 5.2 % w/w
- Assay ([4]; 40° C./75% RH, 2M, by HPLC): 70.1 w/w %
- Total Impurities ≥ 0.05% ([4]; 40° C./75% RH, 2M, by HPLC): 13.21 Area %
- Assay [4, 13]: 70 w/w %
- Total Impurities ≥ 0.05% [4, 13]: 13.2 Area %
- Moisture ([4]; 40° C./75% RH, 3M): 5.8 % w/w
- Assay ([4]; 40° C./75% RH, 3M, by HPLC): 61.3 w/w %
- Total Impurities ≥ 0.05% ([4]; 40° C./75% RH, 3M, by HPLC): 17.75 Area %
- Assay [4, 14]: 61 w/w %
- Total Impurities ≥ 0.05% [4, 14]: 17.8 Area %
- Moisture ([4]; T(0)): 2.9 % w/w
- Total Impurities ≥ 0.05% ([4]; T(0), by HPLC): 2.24 Area %
- Total Impurities ≥ 0.05% ([4]; T(0), by HPLC, listed as amorphous): 2.2 Area %
- Assay ([4]; T(0), by Q-NMR): 94.2^b w/w %
- Assay ([4]; T(0), by Q-NMR, listed as amorphous): 94 w/w %
- trend of impurity values and assay results [4]: substantial increases in impurity values and corresponding decreases in assay results

SMILES: C#Cc1c(F)ccc2cc(O)cc(-c3ncc4c(N5C[C@H]6CC[C@@H](C5)N6)nc(OC[C@@]56CCCN5C[C@H](F)C6)nc4c3F)c12 [Form IX, 4-(4-((1R,5S)-3,8-diazabicyclo[3.2.1]octan-3-yl)-8-fluoro-2-(((2R,7aS)-2-fluorohexahydro-1H-pyrrolizin-7a-yl)methoxy)pyrido[4,3-d]pyrimidin-7-yl)-5-ethynyl-6-fluoronaphthalen-2-ol]
- onset of degradation as estimated by TGA [1]: about 190 °C
- weight loss observed by TGA ([1]; before 190° C. (onset of degradation)): about 0.5%
- weight loss observed by TGA ([1]; before 190° C. (onset of degradation), listed as MRTX1133 Form IX): 0.5% weight loss observed
- Bulk (UPLC) purity [3, 5]: 98.0%
- Bulk (UPLC) purity [3, 6]: 98.0%
- Bulk (XRPD) form [3, 6]: No form change
- Bulk color [3, 6]: no change of color
- Bulk (UPLC) purity [3, 7]: 97.9%
- Bulk (UPLC) purity [3, 8]: 98.1%
- Bulk (XRPD) form [3, 8]: No form change
- Bulk color [3, 8]: no change of color
- Bulk (UPLC) purity [3, 9]: 97.8%
- Bulk (XRPD) form [3, 9]: No form change
- Bulk (UPLC) purity [3, 10]: 98.0%
- Bulk (XRPD) form [3, 10]: No form change
- Bulk color [3, 10]: no change of color
- Bulk (UPLC) purity [3, 11]: 97.9%
- Bulk (UPLC) purity [3, 12]: 98.1%
- Bulk (XRPD) form [3, 12]: No form change
- Bulk color [3, 12]: no change of color
- Initial Purity by UPLC [3]: 97.9%
- stability under the conditions tested (conclusion) [4]: much more stable; also recorded: stable
- Moisture ([4]; 25° C./60% RH, 1M): 0.56 % w/w
- Assay ([4]; 25° C./60% RH, 1M, by HPLC): 98.0 w/w %
- Total Impurities ≥ 0.05% ([4]; 25° C./60% RH, 1M, by HPLC): 1.5 Area %
- Moisture ([4]; 25° C./60% RH, 2M): 0.65 % w/w
- Assay ([4]; 25° C./60% RH, 2M, by HPLC): 97.6 w/w %
- Total Impurities ≥ 0.05% ([4]; 25° C./60% RH, 2M, by HPLC): 1.4 Area %
- Moisture ([4]; 25° C./60% RH, 3M): 0.70 % w/w
- Assay ([4]; 25° C./60% RH, 3M, by HPLC): 98.2 w/w %
- Total Impurities ≥ 0.05% ([4]; 25° C./60% RH, 3M, by HPLC): 1.7 Area %
- Moisture ([4]; 25° C./60% RH, 6M): 0.66 % w/w
- Assay ([4]; 25° C./60% RH, 6M, by HPLC): 98.5 w/w %
- Total Impurities ≥ 0.05% ([4]; 25° C./60% RH, 6M, by HPLC): 1.7 Area %
- moisture content trend ([4]; 40° C./75% RH): relatively stable
- Moisture ([4]; 40° C./75% RH, 1M): 0.56 % w/w
- Assay ([4]; 40° C./75% RH, 1M, by HPLC): 97.6 w/w %
- Total Impurities ≥ 0.05% ([4]; 40° C./75% RH, 1M, by HPLC): 1.8 Area %
- Moisture ([4]; 40° C./75% RH, 2M): 0.63 % w/w
- Assay ([4]; 40° C./75% RH, 2M, by HPLC): 97.3 w/w %
- Total Impurities ≥ 0.05% ([4]; 40° C./75% RH, 2M, by HPLC): 1.8 Area %
- Moisture ([4]; 40° C./75% RH, 3M): 0.66 % w/w
- Assay ([4]; 40° C./75% RH, 3M, by HPLC): 96.5 w/w %
- Total Impurities ≥ 0.05% ([4]; 40° C./75% RH, 3M, by HPLC): 2.0 Area %
- Moisture ([4]; 40° C./75% RH, 6M): 0.70 % w/w
- Assay ([4]; 40° C./75% RH, 6M, by HPLC): 96.9 w/w %
- Total Impurities ≥ 0.05% ([4]; 40° C./75% RH, 6M, by HPLC): 2.3 Area %
- Moisture ([4]; T(0)): 0.94 % w/w
- Assay ([4]; T(0), by HPLC): 96.2 w/w %
- Total Impurities ≥ 0.05% ([4]; T(0), by HPLC): 1.2 Area %
- trend of impurity values and assay results [4]: no increases in impurity values and no decreases in assay results
